Test results as given in patent US4626526A, “(S)-N^6 -2-hydroxypropyladenosines” (Warner-Lambert Company, priority 1984, dated 1986).

What was measured:
adenosine A1 receptor = biological target: T1, adenosine A1 receptor (Rattus norvegicus, UniProt P25099); test: Adenosine Receptor Binding, A1 Receptor Affinity (RBA1), [3H]-CHA; conditions: rat brain membranes, 1.0 nM [3H]-CHA
T1 construct: Whole brain minus cerebellum and brainstem from male Long Evans rats; from tissue; host or cells: whole brain minus cerebellum and brainstem, male Long Evans rats, membranes
T1 sequence (P25099 1-326): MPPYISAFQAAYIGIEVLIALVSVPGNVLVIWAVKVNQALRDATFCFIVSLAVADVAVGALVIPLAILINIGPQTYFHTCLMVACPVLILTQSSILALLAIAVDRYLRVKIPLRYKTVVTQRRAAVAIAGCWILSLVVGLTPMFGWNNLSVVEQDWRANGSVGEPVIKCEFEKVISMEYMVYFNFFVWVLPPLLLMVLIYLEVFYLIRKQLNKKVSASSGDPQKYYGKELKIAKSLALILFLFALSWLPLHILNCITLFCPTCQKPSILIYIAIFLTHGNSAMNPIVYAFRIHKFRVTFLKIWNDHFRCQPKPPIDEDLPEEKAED
Experimental: Whole brain minus cerebellum and brainstem from male Long Evans rats (150-200 g) was homogenized in 30 volumes of ice-cold 0.05M Tris-HCl buffer pH 7.7 using a Brinkman Polytron PT-10, (setting number 6 for 20 seconds) and centrifuged for ten minutes at 20,000 × g (Sorvall RC-2), 4° C. The supernatant was discarded, and the pellet was resuspended and centrifuged as before. The pellet was resuspended in 20 ml Tris-HCl buffer containing two International Units/ml of adenosine deaminase (Sigma type III from calf intestinal mucosa), incubated at 37° C. for 30 minutes, then subsequently at 0° C. for ten minutes. […]
Tissue homogenate (10 mg/ml) was incubated in 0.05M Tris-HCl buffer pH 7.7 containing 1.0 nM [^3 H]-N^6 -cyclohexyladenosine (^3 H]-CHA) with or without test agents in triplicate for one hour at 25° C. […] The radio-labeled ligand retained on the filter was measured by liquid scintillation spectrophotometry after shaking the filters for one hour or longer on a mechanical shaker in 10 ml of Beckman Ready-Solv HP scintillation cocktail.
Nonspecific binding was defined as the binding which occurred in the presence of 1 mM theophylline. […] The Scatchard plot was calculated by linear regression of the line obtained by plotting the amount of radioligand bound (pmoles/gram of tissue) versus [formula] […] The maximal number of binding sites (Bmax) was calculated from the Scatchard plot.

adenosine A2 receptor = biological target: T2, adenosine A2 receptor (Rattus norvegicus, UniProt P30543); test: Adenosine Receptor Binding, A2 Receptor Affinity (RBA2), [3H]NECA, rat striatal membranes; conditions: 4 nM [3H]NECA, 50 nM N6-cyclopentyladenosine
T2 construct: 5 mg original tissue weight of rat weight of rat striatal membranes; tissue Pel-Freez (Rogers, Arkansas); host or cells: rat brain striatum membranes (Sprague-Dawley; Long-Evans hooded rats gave essentially identical results)
T2 sequence (P30543 whole entry): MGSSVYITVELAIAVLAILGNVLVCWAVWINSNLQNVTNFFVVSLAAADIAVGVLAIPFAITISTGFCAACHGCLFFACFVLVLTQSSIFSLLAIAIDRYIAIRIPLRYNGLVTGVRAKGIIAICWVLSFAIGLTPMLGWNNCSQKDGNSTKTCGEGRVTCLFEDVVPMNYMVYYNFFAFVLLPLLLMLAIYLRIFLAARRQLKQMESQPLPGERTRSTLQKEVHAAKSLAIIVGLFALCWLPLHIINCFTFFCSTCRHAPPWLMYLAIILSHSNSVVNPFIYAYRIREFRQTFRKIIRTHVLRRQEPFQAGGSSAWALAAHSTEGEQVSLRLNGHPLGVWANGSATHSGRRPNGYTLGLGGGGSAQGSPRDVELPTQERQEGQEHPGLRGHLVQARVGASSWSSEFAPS
Experimental: Brains from 200-500 g mixed sex Sprague-Dawley rats were purchased from Pel-Freez (Rogers, Arkansas). Fresh brains from male Long-Evans hooded rats (Blue Spruce Farms, Altamont, NY) gave essentially identical results. Brains were thawed and then kept on ice while the striata were dissected out. Striata were disrupted in 10 vol of ice-cold 50 mM Tris.HCl (pH 7.7 at 25° C., pH 8.26 at 5° C.) (Tris) for 30 seconds in a Polytron PT-10 (Brinkmann) at setting 5. The suspension was centrifuged at 50,000 xg for ten minutes, the supernatant discarded, the pellet resuspended in 10 vol ice-cold Tris as above, recentrifuged, resuspended at 1 g/5 ml, and stored in plastic vials at -70° C. (stable for at least six months). When needed, tissue was thawed at room temperature, disrupted in a Polytron, and kept on ice until used. […]
Incubations were terminated by filtration through 2.4 cm GF/B filters under reduced pressure. […] Filters were put in scintillation vials, 8 ml of Formula 947 scintillation fluid added, and the vials left overnight, shaken, and counted in a liquid scintillation counter at 40% efficiency.
Nonspecific binding was defined as binding in the presence of 100 μM N^6 -cyclopentyladenosine, and specific binding was defined as total binding minus nonspecific binding. The IC50 was calculated by weighted nonlinear least squares curve-fitting to the mass-action equation. […]

C[C@H](O)CNc1ncnc2c1ncn2[C@@H]1O[C@H](CO)[C@@H](O)[C@H]1O [N^6-[(S)-2-hydroxypropyl]adenosine, N^6-[(S)-2-Hydroxypropyl]adenosine]
IC50 (adenosine A1 receptor): 0.006 µM
IC50 (adenosine A2 receptor): 14 µM
